In the Bradley open melting point set (2014) one finds melting point data, which are given here for 64 compounds.

“And” between values parts separate entries of the source, which are not always exact repeats. Equal values may be shown once. Where a name gives a salt, the structure may show the parent alone.

The term melting point denotes the temperature of the solid-liquid transition. With `COC(=O)c1ccc(N(C)C)cc1` [methyl 4-dimethylaminobenzoate], the melting point was found to be 100 °C. To `O=C1CN=C(c2ccccc2Cl)c2cc([N+](=O)[O-])ccc2N1` [Clonazepam] belongs 238 °C; to `CC(N)CCc1ccccc1` (centres undefined) [3-amino-1-phenylbutane], -50 °C.

`COc1ccccc1OC` [veratrole]: the melting point worked out at 22 °C.

For the compound `CCNCC` [diethylamine], the melting point is -50 °C. In the case of `CCCCCCC#N` [hexyl_cyanide] it was -63 °C. To `C(O)[C@@H](O)[C@@H](O)[C@H](O)CO` [D-arabitol] belongs 102 °C. To `OC(c1ccc(Cl)cc1)(c1ccc(Cl)cc1)C(Cl)(Cl)Cl` [2,2,2-Trichloro-1,1-bis(4-chlorophenyl)ethanol] belongs 78.5 °C; to `O=C(O)C(F)(F)F` [trifluoroacetic acid], -15 °C; to `O=C(O)c1ccccc1Br` [2-bromobenzoic acid], 148 °C. `Cc1ccc(Cl)cc1` [4-chlorotoluene] came in with a melting point of 8 °C. In the case of `O=C(O)COc1ccc(F)cc1` [4-fluorophenoxyacetic acid] it was 105 °C; in that of `[O-][P+](c1ccccc1)(c1ccccc1)C1C=C(c2ccccc2)C=C(c2ccccc2)O1` (centres undefined) [(4,6-diphenyl-2H-pyran-2-yl)(diphenyl)phosphane oxide], 152 °C.

`CN1C(=O)C(=NNc2c(Br)cc(Br)cc2Br)C(=O)N(C)C1=O`: the melting point was 166 °C.

Regarding `C=CC(=O)NCCNC(=O)C=C` [N,N'-ethylenebisacrylamide], the melting point came out at 142 °C. To `CC[SiH](CC)CC` [triethylsilane] belongs -157 °C. To `CCCCCCCS` [1-heptanethiol] belongs -43 °C; to `COc1ccc2[nH]c(C)cc2c1` [5-methoxy-2-methylindole], 87 °C; to `CCOS(=O)(=O)OCC` [Diethyl sulfate], -24 °C. On to `FC(F)(F)c1cccc(Cl)n1` [2-chloro-6-(trifluoromethyl)pyridine], for which the melting point worked out at 29 °C. To `NC(=O)c1ccccc1` [benzamide] belongs 129 °C and 130 °C. Take `Oc1ccc(Cl)cc1Cc1cc(Cl)ccc1O` [2,2'-Methylenebis(4-chlorophenol)]: the melting point was found to be 170 °C.

In turn, `N[C@@H](Cc1ccc(O)c(O)c1)C(=O)O` [Levodopa] came in with a melting point of 277 °C. Regarding `CC[C@H](C)[C@H](N)C(=O)O` [L-Isoleucine], the melting point was found to be 169 °C.

Turning to `Brc1ccc(Oc2ccc(Br)cc2)cc1` [bis-p-bromophenyl_ether], the melting point was found to be 60 °C. The compound `CCOC(=O)Cc1c(C)n(C(=O)c2ccc(Cl)cc2)c2ccc(OC)cc12` [indomethacin ethyl ester] came in with a melting point of 96 °C.

Take `CCCCCN` [Amylamine]: the melting point was -55 °C. The compound `CC(C)(O)C(C)(C)O` [pinacol, anhydrous] registered a melting point of 44 °C. Regarding `C(=C\c1ccccc1)/c1ccccc1` [trans-Stilbene], the melting point turned out to be 125 °C.

In turn, `CN1C(=O)c2ccccc2C1C1=COCCC1` (centres undefined) [3-(3,4-Dihydro-2H-pyran-5-yl)-2-methylisoindolin-1-one] gave a melting point of 95.5 °C. In the case of `CS(=O)(=O)c1ccc(B(O)O)cc1` [4-(methylsulfonyl)benzeneboronic acid] it was 200 °C; in that of `CC(C)(C)OC(=O)NCC(=O)N(Cc1ccco1)C(C(=O)NCc1ccccc1)c1ccccc1` (centres undefined) [Ugi product 108C (UC)], 147 °C; in that of `N#Cc1ccccc1[N+](=O)[O-]` [2-nitrobenzonitrile], 109 °C. The compound `O=C(O)c1ccccc1Br` [o-bromobenzoic_acid] returned a melting point of 149 °C.

As to `C1CCC1` [cyclobutane], the melting point is -90.7 °C. To `C=CCCCCCCCCCCCCCCCC` [1-octadecene] belongs 18 °C. Compound `C=C[C@H]1C[N@@]2CC[C@H]1C[C@H]2[C@H](O)c1ccnc2ccccc12` [(8alpha,9R)-Cinchonan-9-ol] showed a melting point of 200 °C. In the case of `N#Cc1cccc(CO)c1` [m-hydroxymethyl_benzonitrile] it was 28 °C. On to `Oc1ccc(Cl)cc1` [4-Chlorophenol], for which the melting point is 44 °C. `CC(C)C(O)C(C)(C)C` (centres undefined) [2,2,4-trimethyl-3-pentanol]: the melting point is -11 °C. In the case of `COc1cc(Cl)nc(OC)n1` [6-chloro-2,4-dimethoxypyrimidine] it was 72 °C; in that of `CC(=O)OCc1ccccc1` [benzyl acetate], -51 °C. To `CCCCCCCCCCBr` [1-bromodecane] belongs -29 °C.

On to `C[Si](C)(C)OS(=O)(=O)O[Si](C)(C)C` [bis(trimethylsilyl) sulfate], for which the melting point worked out at 46 °C.

Regarding `COc1ccc(C(=O)O)cc1` [P-Anisic Acid], the melting point was found to be 185 °C. On to `COc1ccc(C(=O)c2ccccc2Cl)cc1OC` [methanone, (2-chlorophenyl)(3,4-dimethoxyphenyl)-], for which the melting point was determined as 126 °C. Turning to `CCCCCCCCCCCCCCCCC` [heptadecane], the melting point was determined as 22 °C.

For `O=C1C=C(Cl)C(=O)C=C1Cl` [2,5-Dichloro-1,4-benzoquinone], the melting point is 162 °C. In the case of `Cc1ccccc1CNC(=S)Nc1ccccc1` [1-(2-methylbenzyl)-3-phenylthiourea] it was 163 °C; in that of `COC(=O)c1cccc(OC(C)=O)c1` [methyl_3-acetoxybenzoate], 29 °C; in that of `CC(C)(C)c1ccc(Br)cc1` [1-bromo-4-tert-butylbenzene], 16 °C. To `O=CO` [formic acid] belongs 8.3 °C and 8.32 °C; to `Cc1noc(NS(=O)(=O)c2ccc(N)cc2)c1C` [4-Amino-N-(3,4-dimethyl-1,2-oxazol-5-yl)benzenesulfonamide], 196 °C.

Take `CC(=O)Nc1ccc(Br)cc1OC(F)(F)F` [4'-bromo-2'-(trifluoromethoxy)acetanilide]: the melting point is 136 °C. Compound `CCOC(=O)c1sc2sc(C#N)c(N)c2c1N` gave a melting point of 262 °C.

`OCc1ccccc1O` [2-hydroxybenzyl alcohol] had a melting point of 85 °C. In the case of `N#Cc1cc(Cl)ccc1Cl` [2,5-dichlorobenzonitrile] it was 130 °C; in that of `CC(CN1CCOCC1)C(C(=O)N1CCCC1)(c1ccccc1)c1ccccc1` (centres undefined) [dextromoramide], 180 °C; in that of `N#CNC(=N)N` [dicyandiamide], 210 °C. In the case of `O=[PH](O)c1ccccc1` [phenylphosphinic acid] it was 84 °C; in that of `COC1(OC)CCC2(C)C3CCC4(C)CCCC4(O)C3CCC2(C)C1` (centres undefined) [3,3-dimethoxy-5-methylandrostan-14-ol], 147 °C.

`CCOC(=O)O[C@]1(C(=O)OCCl)CC[C@H]2[C@@H]3CCC4=CC(=O)C=C[C@]4(C)[C@H]3[C@@H](O)C[C@@]21C` [Loteprednol] yielded a melting point of 222 °C.

On to `O=C(c1ccc(F)cc1)c1ccc(F)cc1` [4,4'-difluorobenzophenone], for which the melting point was determined as 108 °C. In the case of `COC(=O)CC(C)CCC1C(C)(O)CCC2C(C)(C)CCCC21C` (centres undefined) it was 70 °C.
